From patent US7504382B2 (priority 2003, dated 2009)
≈ marks a conversion by molar mass, not a printed value. Square brackets hold non-standard residues; d marks the D form. Peptide text beside a SMILES is read from it. * marks the point of attachment. ξ: configuration not given here. ξE = NC(CCC(=O)O)C(=O)O; Cbz = O=C(OCc1ccccc1)*; CH2F = FC*

How the values were obtained:
[1] = system: SARS-CoV infected Vero-cells; type: cell-based; settings: concentration of 1 μM
[2] = system: SARS-CoV infected Vero 76 cells; type: cell-based; settings: for EC50 (protection from virus-induced cell death): SARS-CoV infected Vero 76 cells, 72 h, neutral red; for SI value: from TC50 and EC50, indication of potential therapeutical index

Compound	inhibition of the cytopathic effect (CPE) of SARS-CoV [1] [%]	toxicity at the same concentration (Vero-cells)	EC50 (protection from virus-induced cell death) [2] [µg/mL]	SI value [2]	TC50 (toxicity of the compound) (uninfected Vero 76 cells) [µg/mL]
CC(C)CC(NC(=O)C(NC(=O)OCc1ccccc1)C(C)C)C(=O)NC(CCC(=O)N(C)C)C(=O)CF (stereo not drawn) [Example 7, 4-(Cbz-Val-Leu-Amido)-6-Fluoro-5-Oxo-Hexanoic Acid Dimethylamide] (Cbz-Val-Leu-Glu(NMe2)-CH2F; configuration not given here)	94.5	no toxicity was observed	–	–	–
CNC(=O)CCC(NC(=O)[C@H](CC(C)C)NC(=O)OCc1ccccc1)C(=O)CF (stereo partly drawn) [Example 12, 4-(Cbz-Leu-Amido)-6-Fluoro-5-Oxo-Hexanoic Acid Methylamide] (Cbz-Leu-[ξE](NHMe)-CH2F)	100	no toxicity was observed	–	–	–
CC(C)[C@H](NC(=O)OCc1ccccc1)C(=O)NC(CC(=O)N(C)C)C(=O)CF (stereo partly drawn) [Example 17, 3-(Cbz-Val-Amido)-5-Fluoro-4-Oxo-Pentanoic Acid Dimethylamide]	–	–	2.1 (≈ 5.13 µM)	> 24	> 50
CC(C)[C@H](NC(=O)OCc1ccccc1)C(=O)NC(CCC(=O)N(C)C)C(=O)CF (stereo partly drawn) [Example 24, 4-(Cbz-Val-Amido)-6-Fluoro-5-Oxo-Hexanoic Acid Dimethylamide] (Cbz-Val-[ξE](NMe2)-CH2F)	100	no toxicity was observed	0.02 (≈ 0.0472 µM)	> 500	> 10
